Columns and labels:
[1] = system: multiple myeloma cell line MM.1S; assay: MM.1S 3 day proliferation assay, single agents and combinations (Cell-Titer Glo); type: cell-based; conditions: FIG. 1
Experimental: The in vitro potency of the combinations of formula I compounds with chemotherapeutic agents was measured by the cell proliferation assay of Example 11 and the results are compiled in Example iii. The CellTiter-Glo® Luminescent Cell Viability Assay (commercially available from Promega Corp., Madison, Wis.) is a homogeneous assay method based on the recombinant expression of Coleoptera luciferase (U.S. Pat. No. 5,583,024; U.S. Pat. No. 5,674,713; U.S. Pat. No. 5,700,670) and determines the number of viable cells in culture based on quantitation of the ATP present, an indicator of metabolically active cells (Crouch et al (1993) J. Immunol. Meth. 160:81-88; U.S. Pat. No. 6,602,677). The CellTiter-Glo® Assay was conducted in 96 or 384 well format, making it amenable to automated high-throughput screening (HTS) (Cree et al (1995) AntiCancer Drugs 6:398-404). The homogeneous assay procedure involves adding the single reagent (CellTiter-Glo® Reagent) directly to cells cultured in serum-supplemented medium. Cell washing, removal of medium and multiple pipetting steps are not required. The system detects as few as 15 cells/well in a 384-well format in 10 minutes after adding reagent and mixing.
The homogeneous “add-mix-measure” format results in cell lysis and generation of a luminescent signal proportional to the amount of ATP present. […] Viable cells are reflected in relative luminescence units (RLU). […] Data can be recorded by luminometer or CCD camera imaging device. The luminescence output is presented as relative light units (RLU), measured over time.
The combination index (CI) score is calculated by the Chou and Talalay method (Chou, T. and Talalay, P. (1984) Adv. Enzyme Regul. 22:27-55). […] The strength of synergy is assessed according to Chou and Talalay. […]
The in vitro cell survival and proliferation assay (Cell-Titer Glo, Promega) measured viable cells over varying inhibitor concentrations (10^−3 to 10 μMolar, Relative Units, wherein a Relative Unit equals 0.3 micromolar for Compound 3, 0.3 micromolar for Formula A, and 0.1 micromolar for Formula B). […]

[2] = system: RPMI 8226.x1 multiple myeloma xenografts; assay: RPMI 8226.x1 multiple myeloma xenograft; type: in vivo, SCID Beige mice; conditions: Formula A 75 mg/kg po qd x21, day 27
Experimental: (§1) The efficacy of the combinations of the invention may be measured in vivo by implanting allografts or xenografts of cancer cells in rodents and treating the tumor-bearing animals with the combinations. Variable results are to be expected depending on the cell line, the presence or absence of certain mutations in the tumor cells, the sequence of administration of a formula I compound and chemotherapeutic agent, dosing regimen, and other factors. Subject mice were treated with drug(s) or control (Vehicle) and monitored over several weeks or more to measure the time to tumor doubling, log cell kill, and tumor inhibition.
Dosing of all cohorts commenced on Day 0 when the mean tumor volume of all cohorts was between about 100 to 200 cubic millimeters.

[3] = system: syngeneic A20 lymphoma tumors; assay: Syngeneic A20 lymphoma tumor model; type: in vivo, Balb/c mice; conditions: Compound 3 25 and 50 mg/kg or Formula A 75 mg/kg po qd x21
Experimental: The efficacy of the combinations of the invention may be measured in vivo by implanting allografts or xenografts of cancer cells in rodents and treating the tumor-bearing animals with the combinations. […] Subject mice were treated with drug(s) or control (Vehicle) and monitored over several weeks or more to measure the time to tumor doubling, log cell kill, and tumor inhibition.
Dosing of all cohorts commenced on Day 0 when the mean tumor volume of all cohorts was between […]. […] At the conclusion of this study, femurs were collected and histological analysis of the bone marrow was conducted, and peripheral blood was collected for determination of blood cell counts.

[4] = system: bone marrow aspirate samples from multiple myeloma patients; assay: Primary cancer cell isolates from bone marrow aspirates, apoptosis; type: cell-based, human; conditions: 0.3 or 1.0 micromolar; two of four cases
Experimental: Shown in FIG. 2 are a summary of Combination Index values for Compound 3 in combination with different agents. The values shown were calculated at the ED50 of the dose response curves which were similar in nature to those exemplified in FIG. 1. Each dot in the plot represents the test results obtained with a different multiple myeloma cell line with a different combination of test agents, including Compound 3 plus a second agent as labeled on the abscissa. The horizontal line on the plot itself indicates the mean of all CI values for a given test agent. Combinations of Compound 3 with clinical standard of care chemotherapeutic agents including dexamethasone, lenalidomide, bortezomib, and melphalan produced variable results wherein CI values between about 0.1 and about 1 were obtained, with means generally greater than about 0.5. Compared to these clinically active agents, unexpectedly uniform and unexpectedly potent combination test results were obtained for Compound 3 in combination with Formula A, in which the majority of calculated CI values were less than about 0.2 and the mean across all cancer cell lines tested was about 0.2. In addition to these findings, bone marrow aspirate samples from multiple myeloma patients […] to test Formula A and Compound 3 singly and in combination on these primary cancer cell isolates.

[5] = system: MM1.s multiple myeloma xenografts; assay: MM1.s multiple myeloma xenograft; type: in vivo, SCID mice; conditions: Formula A 75 mg/kg po qd, day 18; compared with Compound 3 50 mg/kg
Experimental: as §1
Dosing of all cohorts commenced on Day 0 when the mean tumor volume of all cohorts was between about 200 to 300 cubic millimeters. […] Formula A was tested at as a single agent at a single dose level of 75 mg/kg for which a lesser TGI was obtained at day 18.

[6] = system: prostate cancer cell line PC3; assay: Cell Titer Glo proliferation and survival assay, PC3; type: cell-based; conditions: PC3, FIG. 5
Source text: The results obtained here are representative of a subset of prostate cell lines tested.

[7] = system: EOL-1; assay: EOL-1 cell assay; type: cell-based; conditions: Homo sapiens, EOL1; Table 3
[8] = target: BaF3 PIM2 cells (Homo sapiens, UniProt Q9P1W9); assay: BaF3 PIM2 cell proliferation (Cell Titer Glo); type: cell-based; conditions: Table 3; read-out: BaF3-Pim2
How it was run: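 BaF3 cells stably transfected with PIM2 were cultured in RPMI with 10% FBS, 2 mM L-Glutamine and 250 μg/mL G418, then plated at 5 k/well in 45 μL/well of a 384-well plate. Test compound was added at 5 μL/well, cells incubated overnight, and viability measured by luminescence after 30 minutes with Cell Titer Glo (50 μL/well).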

[9] = system: BaF3 parental cells; assay: BaF3 parental cell proliferation (Cell Titer Glo); type: cell-based; conditions: Mus musculus, Table 3
Experimental: BaF3 parental line was obtained from the DSMZ repository. BaF3 lines transfected with PIM1 or PIM2 were generated. Mouse IL-3 was purchased from R&D Systems. G418 was purchased from Clontech. Media for BaF3 parental line contained RPMI, 10% FBS, 2 mM L-Glutamine, 2 ng/mL mIL-3. Media for BaF3 PIM1 & 2 lines contained RPMI, 10% FBS, 2 mM L-Glutamine, […]. Media for MM1.S line contained RPMI, 10% FBS, 2 mM L-Glutamine.
BaF3 parental cells, BaF3 PIM1 cells, BaF3 PIM2 cells, and MM1.S cells were seeded at 2 k/well, 5 k/well, 5 k/well, and 10 k/well respectively, in a 384-well plate, at 45 μL/well. Test compound was added at 5 μL/well. BaF3 cells (parental and transfected) were incubated overnight, while MM1.S cells were incubated for 72 hours at 37° C., 5% CO2. Cell Titer Glo Reagent (Promega) was added at 50 μL/well, the plates were incubated for 30 minutes, and their luminescence read on an HT Analyst. IC50/EC50 values for the test compound were calculated.

[10] = system: MM1.S cells; assay: MM1.S cell proliferation, 72 hours (Cell Titer Glo); type: cell-based; conditions: Homo sapiens, Table 3, read-out: MM1.s
How it was run: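 BaF3 parental cells (2 k/well, with 2 ng/mL mIL-3) were treated overnight, and MM1.S cells (10 k/well) were treated for 72 h at 37 °C. Viability was read by CellTiter-Glo luminescence. IC50/EC50 values were calculated from the luminescence data.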

[11] = system: multiple myeloma cell line KMS11; assay: Cell Titer Glo proliferation and survival assay, KMS11 and other multiple myeloma cell lines; type: cell-based; conditions: Homo sapiens, KMS-11; single agent; ten multiple myeloma cell lines tested; read-out: IC50 against myeloma cell lines, single agent
Source text: The results obtained here are representative of a total of ten multiple myeloma cell lines tested.

[12] = target: BaF3 PIM1 cells (Homo sapiens, UniProt P11309); assay: BaF3 PIM1 cell proliferation (Cell Titer Glo); type: cell-based; conditions: Table 3; read-out: BaF3-Pim1
Sequence of BaF3 PIM1 cells (P11309 whole entry, change not shown): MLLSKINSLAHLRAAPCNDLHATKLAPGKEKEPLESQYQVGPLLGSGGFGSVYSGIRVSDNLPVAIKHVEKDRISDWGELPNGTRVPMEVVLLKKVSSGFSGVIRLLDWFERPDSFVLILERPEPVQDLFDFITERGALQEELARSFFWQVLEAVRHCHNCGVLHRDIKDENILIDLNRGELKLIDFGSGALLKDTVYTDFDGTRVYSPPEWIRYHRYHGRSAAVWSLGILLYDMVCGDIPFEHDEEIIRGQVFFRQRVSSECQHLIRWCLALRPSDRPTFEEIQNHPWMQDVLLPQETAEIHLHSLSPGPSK

Sequence of BaF3 PIM2 cells (Q9P1W9 whole entry, change not shown): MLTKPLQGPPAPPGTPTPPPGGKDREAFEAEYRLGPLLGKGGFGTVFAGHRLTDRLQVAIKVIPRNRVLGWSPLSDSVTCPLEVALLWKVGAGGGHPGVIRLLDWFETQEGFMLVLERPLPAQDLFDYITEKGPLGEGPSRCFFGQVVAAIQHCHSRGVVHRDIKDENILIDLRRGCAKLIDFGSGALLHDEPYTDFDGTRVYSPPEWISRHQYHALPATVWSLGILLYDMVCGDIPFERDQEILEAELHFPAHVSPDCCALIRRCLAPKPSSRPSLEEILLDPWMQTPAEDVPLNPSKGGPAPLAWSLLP

IC50 [7] [µM] | GI50 [8] [µM] | EC50 [10] [µM] | GI50 [12] [µM] | Structure (SMILES) | lowest level reached by dose-response curve, of control value [1] | tumor growth inhibition (TGI) [2] [%] | effect on tumor growth, single agents [3] | activity on primary cancer cell isolates [4] | tumor growth inhibition (TGI), in words [5] | IC50 [6] [µM] | IC50 [9] [µM] | IC50 [11] [µM]
 |  |  |  | CS(=O)(=O)N1CCN(Cc2cc3nc(-c4cccc5[nH]ncc45)nc(N4CCOCC4)c3s2)CC1 [Formula A, 4-(2-(1H-indazol-4-yl)-6-((4-(methylsulfonyl)piperazin-1-yl)methyl)thieno[3,2-d]pyrimidin-4-yl)morpholine, reference compound] | about 0% | 40 | no significant effect on tumor growth | only limited single agent activity | lesser TGI | ~0.3 |  | 
 |  |  |  | Cc1c(CN2CCN(C(=O)[C@H](C)O)CC2)sc2c(N3CCOCC3)nc(-c3cnc(N)nc3)nc12 [Formula B, (S)-1-(4-((2-(2-aminopyrimidin-5-yl)-7-methyl-4-morpholinothieno[3,2-d]pyrimidin-6-yl)methyl)piperazin-1-yl)-2-hydroxypropan-1-one] | about 0% |  |  |  |  |  |  | 
0.4 | > 20 | > 20 | 0.4 | O=C(Nc1c[nH]c2ncccc12)c1cnn2ccc(NCCc3ccccc3)nc12 [Compound PIMi, 5-(phenethylamino)-N-(1H-pyrrolo[2,3-b]pyridine-3-yl)pyrazolo[1,5-a]pyrimidine-3-carboxamide, reference compound] |  |  |  |  |  |  | 12 | > 5

— US8435976B2, “4-substituted pyridin-3-yl-carboxamide compounds and methods of use” (F. Hoffmann-La Roche, priority 2009, dated 2013)
